The record followed here is publication PMC5597618, “Identification and characterization of the novel reversible and selective cathepsin X inhibitors” (Scientific Reports, 2017).

The series deals with PC-3 cells. Briefly: Cellular uptake and retention by LC-MS/MS. The class given is in vitro ADME, human. The settings on record: 50 µM, after 1 hour. The method, then:
Evaluation of cellular uptake and retention of compound 22: sample preparation and LC- […]
PC-3 cells were treated for 1 hour with compound 22 (50 µM). Cells were washed twice with cold PBS, trypsinized, washed once more and centrifuged. A pellet of cells was resuspended in 200 µL of PBS (or in 200 µL of PBS containing 5µM inhibitor for standard addition) and transferred to 1.5 mL Eppendorf vials prefilled with 0.1 mm and 0.5 mm glass beads (NextAdvance, USA). All cell samples were then homogenized with a BulletBlender (NextAdvance, USA) for 5 min at speed setting »6«. […]
(2.30;50), (2.50;50), (2.6;5). […] ESI Jetstream parameters were set as follows: drying gas temperature 275 °C, drying gas flow 5 L/min, nebulizer 45 psi, sheath gas temperature 320 °C, sheath gas flow 11 L/min, capillary entrance voltage 4000 V and nozzle voltage 1000 V. Quadrupoles Q1 and Q3 were set at the widest resolution (2.5 amu) and multiple reaction monitoring (MRM) mass transitions used for the quantification of recorded traces are presented in Supplementary Table S4. […]
PC-3 cell lysate was diluted in cathepsin X assay buffer (1 mg/ml protein concentration). […] After blocking with 5% skimmed milk powder in TBS with 0.05% Tween 20, membrane was incubated with streptavidin-HRP (1:5000; Jackson ImmunoResearch) for 1 hour and proteins were detected with […]

As for `CC(C)n1cnnc1SCC(=O)c1ccc2c(c1)OCCO2` [Compound 22, 1-(2,3-Dihydrobenzo[b][1,4]dioxin-6-yl)-2-((4-isopropyl-4H-1,2,4-triazol-3-yl)thio)ethan-1-one], the “% of 22 in the cell media” value was 84%.
